Data taken from the supplement of paper PMC11451515.

Test system: P12-Ichikawa
Assay: cell viability relative to DMSO control; higher = less cytotoxic
Conditions: 48 h
In short: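 Viability is expressed as a percentage of DMSO wells within each plate, and cell-free wells serve as background. Seeding densities in the 1536-well plates (5 μl) were 500 cells/well for NOMO1 or SEM leukemia cells and 1000 cells/well for P12-Ichikawa. Each line was adapted for at least four passages in each medium. Library compounds in DMSO were pin-dosed at 47 μM to 0.79 nM (11 points, threefold), and CellTiter-Glo One luminescence was read after 48 h at 37°C.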

[1] = HPLM + 10% dialyzed FBS, 0.000781 µM
[2] = HPLM + 10% dialyzed FBS, 0.00234 µM
[3] = HPLM + 10% dialyzed FBS, 0.00702 µM
[4] = HPLM + 10% dialyzed FBS, 0.0211 µM
[5] = HPLM + 10% dialyzed FBS, 0.0632 µM
[6] = HPLM + 10% dialyzed FBS, 0.19 µM
[7] = HPLM + 10% dialyzed FBS, 0.569 µM
[8] = HPLM + 10% dialyzed FBS, 1.71 µM
[9] = HPLM + 10% dialyzed FBS, 5.12 µM
[10] = HPLM + 10% dialyzed FBS, 15.4 µM
[11] = HPLM + 10% dialyzed FBS, 46.1 µM
[12] = RPMI 5 mM glucose + 10% FBS, 0.000781 µM
[13] = RPMI 5 mM glucose + 10% FBS, 0.00234 µM
[14] = RPMI 5 mM glucose + 10% FBS, 0.00702 µM
[15] = RPMI 5 mM glucose + 10% FBS, 0.0211 µM
[16] = RPMI 5 mM glucose + 10% FBS, 0.0632 µM
[17] = RPMI 5 mM glucose + 10% FBS, 0.19 µM
[18] = RPMI 5 mM glucose + 10% FBS, 0.569 µM
[19] = RPMI 5 mM glucose + 10% FBS, 1.71 µM
[20] = RPMI 5 mM glucose + 10% FBS, 5.12 µM
[21] = RPMI 5 mM glucose + 10% FBS, 15.4 µM
[22] = RPMI 5 mM glucose + 10% FBS, 46.1 µM
[23] = RPMI 5 mM glucose + 10% dialyzed FBS, 0.000781 µM
[24] = RPMI 5 mM glucose + 10% dialyzed FBS, 0.00234 µM
[25] = RPMI 5 mM glucose + 10% dialyzed FBS, 0.00702 µM
[26] = RPMI 5 mM glucose + 10% dialyzed FBS, 0.0211 µM
[27] = RPMI 5 mM glucose + 10% dialyzed FBS, 0.0632 µM
[28] = RPMI 5 mM glucose + 10% dialyzed FBS, 0.19 µM
[29] = RPMI 5 mM glucose + 10% dialyzed FBS, 0.569 µM
[30] = RPMI 5 mM glucose + 10% dialyzed FBS, 1.71 µM
[31] = RPMI 5 mM glucose + 10% dialyzed FBS, 5.12 µM
[32] = RPMI 5 mM glucose + 10% dialyzed FBS, 15.4 µM
[33] = RPMI 5 mM glucose + 10% dialyzed FBS, 46.1 µM

SMILES	cell viability [1] [%]	cell viability [2] [%]	cell viability [3] [%]	cell viability [4] [%]	cell viability [5] [%]	cell viability [6] [%]	cell viability [7] [%]	cell viability [8] [%]	cell viability [9] [%]	cell viability [10] [%]	cell viability [11] [%]	cell viability [12] [%]	cell viability [13] [%]	cell viability [14] [%]	cell viability [15] [%]	cell viability [16] [%]	cell viability [17] [%]	cell viability [18] [%]	cell viability [19] [%]	cell viability [20] [%]	cell viability [21] [%]	cell viability [22] [%]	cell viability [23] [%]	cell viability [24] [%]	cell viability [25] [%]	cell viability [26] [%]	cell viability [27] [%]	cell viability [28] [%]	cell viability [29] [%]	cell viability [30] [%]	cell viability [31] [%]	cell viability [32] [%]	cell viability [33] [%]
FC(F)(F)C1=CC=C2C(SCCCCCO\C3=C\O\C(CN4CCOCC4)=C/C3=O)=CC=NC2=C1	107	122	123	120	129	126	132	123	123	107	88.1	110	119	109	114	113	109	125	121	111	94.4	66	112	118	113	116	130	116	127	119	115	104	78
COc1cc(NC(=O)c2ccc(-c3ccc(Cl)cc3)o2)cc(OC)c1	93.8	111	110	112	115	109	111	111	101	99.2	104	97.4	105	100	115	108	115	108	117	101	99.5	95.5	84	107	114	113	112	107	115	104	101	94.3	104
COC1=CC(=CC=C1)C2=CC=C(NC(=O)/C3=C(/CCC3)C(O)=O)C(=C2)F	111	113	116	110	110	113	113	106	100	80.1	57.6	116	116	118	113	109	111	105	105	96.6	79.6	51.7	109	120	114	105	110	110	113	106	92.2	69.6	37.4
CNC(=O)c1ccc(N2C(=S)N(c3ccc(C#N)c(C(F)(F)F)c3)C(=O)C2(C)C)cc1F	98.8	106	79.6	110	123	117	115	124	114	108	107	107	119	72	109	123	117	122	120	124	116	98.5	102	113	80.4	108	120	117	119	122	122	112	91.1
O=C([O-])[C@H](CC(=O)N1C[C@H]2CCCC[C@H]2C1)Cc1ccccc1	107	118	120	129	123	125	125	119	131	130	134	114	129	122	129	134	131	131	131	137	139	142	113	122	126	134	123	127	129	122	135	131	129
COC(=O)Nc1ccc(-c2nc(N3CCOCC3)c3cnn(C4CCN(Cc5cccnc5)CC4)c3n2)cc1	113	117	112	113	109	96.2	83.5	83.6	51.1	31.9	12.9	106	111	102	103	98.3	69.9	61	61.4	43.1	32.4	24.7	113	118	114	116	100	72.3	65.2	59.8	53.1	43.5	6.49
CN(CCOc1ccc(NS(C)(=O)=O)cc1)CCc1ccc(NS(C)(=O)=O)cc1	108	114	119	115	126	127	127	111	118	123	121	118	127	116	126	121	129	131	126	125	136	126	113	114	114	114	117	129	123	122	120	120	115
C[C@]12CC[C@@H]3c4ccc(O)cc4CC[C@H]3[C@@H]1CC[C@@H]2O	116	111	113	106	112	116	105	102	100	88.9	27.1	118	112	115	115	105	111	112	108	107	105	20.9	108	111	109	101	103	102	102	94.3	94.1	75.5	28.6
CCCc1nc2c(C)cc(-c3nc4ccccc4n3C)cc2n1Cc1ccc(-c2ccccc2C(=O)O)cc1	123	124	122	125	126	135	130	127	123	133	123																						
O=C(O)c1ccc(-c2c[nH]c3ncc(-c4ccccc4)cc23)cc1C1CCCC1	108	113	123	116	122	119	120	122	117	80.8	92.6	119	131	113	126	134	133	138	131	129	67	105	114	124	126	130	132	125	138	133	121	73.6	96.3
O=C(c1ccc(/C=C/c2n[nH]c3ccccc23)cc1)N1CCNCC1	94.8	101	98	99.4	111	102	108	9.55	13.2	12.2	19.6	92.6	90.8	100	91.3	101	107	102	13.5	16.9	16.3	19.5	91.2	95.8	86.5	104	99.7	98.3	100	25.3	29.6	25.8	31.2
C[C@H]1[C@H](O)O[C@@H]2O[C@@]3(C)CC[C@H]4[C@H](C)CC[C@@H]1[C@@]24OO3	91.4	95	99.8	98.6	91.4	97.9	101	87.6	54.7	29.4	22.5	90.1	92.9	83.4	94	89.9	91.2	87.9	70.4	33.9	16.8	14.6	82.7	90.6	87.1	87.7	87.2	87	84	61.6	36.5	26.2	24.3
CCCC(CCC)C(=O)[O-]	87.4	96.6	103	102	106	104	102	103	109	105	101	88.6	103	105	110	115	119	105	108	105	105	94.8	94.2	102	102	114	112	107	104	101	107	106	96.5
CN1/C=C(\N=C(NC2=CC=C(C=C2)C(=O)N3CCOCC3)/C1=O)/C4=C(C)C(=CC=C4)NC(=O)C5=CC=C(C=C5)C(C)(C)C	107	108	108	101	104	103	106	98.1	98.3	88.6	89.5	102	95.4	107	91.2	106	110	97.9	100	98.5	95.4	94.4	106	111	103	101	108	106	105	106	107	93.7	85.7
O=C(NCCCNc1nc(Nc2cccc(NC(=O)N3CCCC3)c2)ncc1I)c1cccs1	91.6	91.9	93	90.9	87.3	84	81.3	72.5	84.9	76.1	85.1	83.2	91	87.6	90	85.9	90.4	94.2	50	84.5	83.7	79.9	88.1	84.6	79.8	82.6	91.7	88.1	84.9	81.4	80.2	85.6	72.4
O=[S+]([O-])(CCSSCC[S+](=O)([O-])[O][Na])[O][Na]	105	110	114	124	121	124	129	120	126	123	129	97.4	111	107	111	121	116	133	132	124	119	118	108	133	119	127	134	127	134	126	130	139	133
